Experimental data published in patent US10294202B2, “Pyrrolidinones as herbicides” (FMC Corporation, priority 2013, dated 2019).

What was measured:
barnyardgrass [1] = test: Test A pre-/postemergence herbicide test; type: in vivo, Echinochloa crus-galli; conditions: for Barnyardgrass plant response rating: Preemergence, visual rating on 0 to 100 scale (0 no effect, 100 complete control)
Outline: (§1)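 Seeds in loam–sand blend received preemergence directed soil spray; separately, plants 2–10 cm at one- to two-leaf stage received postemergence spray, both with test chemicals in non-phytotoxic solvent with surfactant. After ~10 days in greenhouse, injury rated visually against untreated controls, 0 (no effect) to 100 (complete control).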

crabgrass, large = test: Test A pre-/postemergence herbicide test; type: in vivo, Digitaria sanguinalis; conditions: for Crabgrass, Large plant response rating: Preemergence, visual rating on 0 to 100 scale (0 no effect, 100 complete control)
Outline: as §1

giant foxtail = test: Test A pre-/postemergence herbicide test; type: in vivo, Setaria faberii; conditions: for Foxtail, Giant plant response rating: Preemergence, visual rating on 0 to 100 scale (0 no effect, 100 complete control)
Outline: as §1

morningglory = test: Test A pre-/postemergence herbicide test; type: in vivo, Ipomoea spp.; conditions: for Morningglory plant response rating: Preemergence, visual rating on 0 to 100 scale (0 no effect, 100 complete control)
Outline: as §1

pigweed = test: Test A pre-/postemergence herbicide test; type: in vivo, Amaranthus retroflexus; conditions: for Pigweed plant response rating: Preemergence, visual rating on 0 to 100 scale (0 no effect, 100 complete control)
Outline: as §1

velvetleaf = test: Test A pre-/postemergence herbicide test; type: in vivo, Abutilon theophrasti; conditions: for Velvetleaf plant response rating: Preemergence, visual rating on 0 to 100 scale (0 no effect, 100 complete control)
Outline: as §1

wheat = test: Test A pre-/postemergence herbicide test; type: in vivo, Triticum aestivum; conditions: for Wheat plant response rating: Preemergence, visual rating on 0 to 100 scale (0 no effect, 100 complete control)
Outline: as §1

corn = test: Test A pre-/postemergence herbicide test; type: in vivo, Zea mays; conditions: for Corn plant response rating: Preemergence, visual rating on 0 to 100 scale (0 no effect, 100 complete control)
Outline: as §1

rice = test: Test C flooded paddy test; type: in vivo, Oryza sativa; conditions: Flood
Outline: (§2)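 Ratings reflect visual comparison with controls on a 0–100 scale, where 100 is complete control. Compound is dosed into standing paddy water 3 cm deep over 2-leaf-stage plants, kept in the greenhouse 13 to 15 days.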

sedge, umbrella = test: Test C flooded paddy test; type: in vivo, Cyperus difformis; conditions: Flood
Text: (§3) Plant species in the flooded paddy test consisted of rice (Oryza sativa), sedge, umbrella (small-flower umbrella sedge, Cyperus difformis), ducksalad (Heteranthera limosa), and barnyardgrass (Echinochloa crus-galli) grown to the 2-leaf stage for testing. At time of treatment, test pots were flooded to 3 cm above the soil surface, treated by application of test compounds directly to the paddy water, and then maintained at that water depth for the duration of the test. Treated plants and controls were maintained in a greenhouse for 13 to 15 days, after which time all species were compared to controls and visually evaluated. Plant response ratings, summarized in Table C, are based on a scale of 0 to 100 where 0 is no effect and 100 is complete control. A dash (-) response means no test result.

ducksalad = test: Test C flooded paddy test; type: in vivo, Heteranthera limosa; conditions: Flood
Outline: as §2

barnyardgrass [2] = test: Test C flooded paddy test; type: in vivo, Echinochloa crus-galli; conditions: Flood
Text: as §3

[3] = Postemergence, 125 g ai/ha, 0 to 100 scale, 0 no effect, 100 complete control
[4] = Postemergence, 500 g ai/ha, 0 to 100 scale (0 no effect, 100 complete control)
[5] = preemergence, 500 g ai/ha, 0 to 100 scale (0 no effect, 100 complete control)
[6] = preemergence, 500 g ai/ha, 0 to 100 scale
[7] = 31 g ai/ha, scale of 0 to 100 where 0 is no effect and 100 is complete control, 13 to 15 days
[8] = 62 g ai/ha, scale of 0 to 100 where 0 is no effect and 100 is complete control, 13 to 15 days
[9] = 125 g ai/ha, scale of 0 to 100 where 0 is no effect and 100 is complete control, 13 to 15 days
[10] = 125 g ai/ha, visual rating, 0 to 100 scale, 0 no effect, 100 complete control, approximately 10 days, preemergence
[11] = Postemergence, 125 g ai/ha, 0 to 100 scale, 0 is no effect, 100 is complete control
[12] = preemergence, 500 g ai/ha, 0 to 100 scale, 0 is no effect and 100 is complete control
[13] = 250 g ai/ha, scale of 0 to 100 where 0 is no effect and 100 is complete control, 13 to 15 days

Compound: O=C1NCC(c2ccsc2)C1C(=O)Nc1ccccc1F (racemic) [Compound 29]
- Plant response rating, Barnyardgrass (barnyardgrass [1]; [3]): 0
- Plant response rating, Barnyardgrass (barnyardgrass [1]; [4]): 0
- Barnyardgrass plant response rating (barnyardgrass [1]; 125 g ai/ha): 0
- Plant response rating, Barnyardgrass (barnyardgrass [1]; [5]): 50
- Plant response rating, Crabgrass, Large (crabgrass, large; [3]): 0
- Plant response rating, Crabgrass, Large (crabgrass, large; [4]): 0
- Crabgrass, Large plant response rating (crabgrass, large; 125 g ai/ha): 30
- Plant response rating, Crabgrass, Large (crabgrass, large; [6]): 70
- Plant response rating, Foxtail, Giant (giant foxtail; [3]): 0
- Plant response rating, Foxtail, Giant (giant foxtail; [4]): 0
- Foxtail, Giant plant response rating (giant foxtail; 125 g ai/ha): 0
- Plant response rating, Foxtail, Giant (giant foxtail; [6]): 0
- Plant response rating, Morningglory (morningglory; [3]): 0
- Plant response rating, Morningglory (morningglory; [4]): 0
- Morningglory plant response rating (morningglory; 125 g ai/ha): 0
- Plant response rating, Morningglory (morningglory; [6]): 0
- Plant response rating, Pigweed (pigweed; [3]): 0
- Plant response rating, Pigweed (pigweed; [4]): 0
- Pigweed plant response rating (pigweed; 125 g ai/ha): 0
- Plant response rating, Pigweed (pigweed; [6]): 0
- Plant response rating, Velvetleaf (velvetleaf; [3]): 0
- Plant response rating, Velvetleaf (velvetleaf; [4]): 0
- Velvetleaf plant response rating (velvetleaf; 125 g ai/ha): 0
- Plant response rating, Velvetleaf (velvetleaf; [6]): 0
- Plant response rating, Wheat (wheat; [3]): 0
- Plant response rating, Wheat (wheat; [4]): 0
- Wheat plant response rating (wheat; 125 g ai/ha): 0
- Plant response rating, Wheat (wheat; [6]): 0
- Plant response rating, Corn (corn; [3]): 0
- Plant response rating, Corn (corn; [4]): 0
- Corn plant response rating (corn; 125 g ai/ha): 0
- Plant response rating, Corn (corn; [6]): 0
- Plant response rating, Rice (rice; [7]): 0
- Plant response rating, Rice (rice; [8]): 0
- Plant response rating, Rice (rice; [9]): 0
- Plant response rating, Rice (rice; 250 g ai/ha, scale 0 to 100): 0
- Plant response rating, Sedge, Umbrella (sedge, umbrella; [7]): 0
- Plant response rating, Sedge, Umbrella (sedge, umbrella; [8]): 0
- Plant response rating, Sedge, Umbrella (sedge, umbrella; [9]): 0
- Plant response rating, Sedge, Umbrella (sedge, umbrella; 250 g ai/ha, scale 0 to 100): 0
- Plant response rating, Ducksalad (ducksalad; [7]): 0
- Plant response rating, Ducksalad (ducksalad; [8]): 0
- Plant response rating, Ducksalad (ducksalad; [9]): 0
- Plant response rating, Ducksalad (ducksalad; 250 g ai/ha, scale 0 to 100): 40
- Plant response rating, Barnyardgrass (barnyardgrass [2]; [7]): 0
- Plant response rating, Barnyardgrass (barnyardgrass [2]; [8]): 0
- Plant response rating, Barnyardgrass (barnyardgrass [2]; [9]): 0
- Plant response rating, Barnyardgrass (barnyardgrass [2]; 250 g ai/ha, scale 0 to 100): 0

Compound: O=C1NCC(c2cccc(C(F)(F)F)c2)C1C(=O)Nc1ccccc1Br (racemic) [Compound 190]
- Plant response rating, Barnyardgrass (barnyardgrass [1]; [10]): 60
- Plant response rating, Barnyardgrass (barnyardgrass [1]; [11]): 70
- Barnyardgrass plant response rating (0 to 100 scale, 0 is no effect, 100 is complete control) (barnyardgrass [1]; Postemergence, 500 g ai/ha): 90
- Plant response rating, Barnyardgrass (barnyardgrass [1]; [12]): 90
- Plant response rating, Crabgrass, Large (crabgrass, large; [10]): 90
- Plant response rating, Crabgrass, Large (crabgrass, large; [11]): 70
- Crabgrass, Large plant response rating (0 to 100 scale, 0 is no effect, 100 is complete control) (crabgrass, large; Postemergence, 500 g ai/ha): 90
- Plant response rating, Crabgrass, Large (crabgrass, large; [12]): 90
- Plant response rating, Foxtail, Giant (giant foxtail; [10]): 80
- Plant response rating, Foxtail, Giant (giant foxtail; [11]): 70
- Foxtail, Giant plant response rating (0 to 100 scale, 0 is no effect, 100 is complete control) (giant foxtail; Postemergence, 500 g ai/ha): 80
- Plant response rating, Foxtail, Giant (giant foxtail; [12]): 90
- Plant response rating, Morningglory (morningglory; [10]): 0
- Plant response rating, Morningglory (morningglory; [11]): 0
- Morningglory plant response rating (0 to 100 scale, 0 is no effect, 100 is complete control) (morningglory; Postemergence, 500 g ai/ha): 10
- Plant response rating, Morningglory (morningglory; [12]): 0
- Plant response rating, Pigweed (pigweed; [10]): 0
- Plant response rating, Pigweed (pigweed; [11]): 0
- Pigweed plant response rating (0 to 100 scale, 0 is no effect, 100 is complete control) (pigweed; Postemergence, 500 g ai/ha): 0
- Plant response rating, Pigweed (pigweed; [12]): 0
- Plant response rating, Velvetleaf (velvetleaf; [10]): 0
- Plant response rating, Velvetleaf (velvetleaf; [11]): 0
- Velvetleaf plant response rating (0 to 100 scale, 0 is no effect, 100 is complete control) (velvetleaf; Postemergence, 500 g ai/ha): 10
- Plant response rating, Velvetleaf (velvetleaf; [12]): 0
- Plant response rating, Wheat (wheat; [10]): 0
- Plant response rating, Wheat (wheat; [11]): 0
- Wheat plant response rating (0 to 100 scale, 0 is no effect, 100 is complete control) (wheat; Postemergence, 500 g ai/ha): 0
- Plant response rating, Wheat (wheat; [12]): 30
- Plant response rating, Corn (corn; [10]): 0
- Plant response rating, Corn (corn; [11]): 0
- Corn plant response rating (0 to 100 scale, 0 is no effect, 100 is complete control) (corn; Postemergence, 500 g ai/ha): 40
- Plant response rating, Corn (corn; [12]): 0
- Plant response rating, Rice (rice; [9]): 0
- Plant response rating, Rice (rice; [13]): 0
- Plant response rating, Rice (rice; 500 g ai/ha, scale 0 to 100): 0
- Plant response rating, Rice (rice; 1000 g ai/ha, scale 0 to 100): 15
- Plant response rating, Sedge, Umbrella (sedge, umbrella; [9]): 0
- Plant response rating, Sedge, Umbrella (sedge, umbrella; [13]): 0
- Plant response rating, Sedge, Umbrella (sedge, umbrella; 500 g ai/ha, scale 0 to 100): 0
- Plant response rating, Sedge, Umbrella (sedge, umbrella; 1000 g ai/ha, scale 0 to 100): 0
- Plant response rating, Ducksalad (ducksalad; [9]): 50
- Plant response rating, Ducksalad (ducksalad; [13]): 75
- Plant response rating, Ducksalad (ducksalad; 500 g ai/ha, scale 0 to 100): 85
- Plant response rating, Ducksalad (ducksalad; 1000 g ai/ha, scale 0 to 100): 100
- Plant response rating, Barnyardgrass (barnyardgrass [2]; [9]): 10
- Plant response rating, Barnyardgrass (barnyardgrass [2]; [13]): 25
- Plant response rating, Barnyardgrass (barnyardgrass [2]; 500 g ai/ha, scale 0 to 100): 50
- Plant response rating, Barnyardgrass (barnyardgrass [2]; 1000 g ai/ha, scale 0 to 100): 65

Compound: CC1(C)NC(=O)C(C(=O)Nc2ccccc2F)C1c1ccc(F)c(F)c1 (centres unmarked) [Compound 11]
- Plant response rating, Barnyardgrass (barnyardgrass [1]; [3]): 0
- Plant response rating, Barnyardgrass (barnyardgrass [1]; [4]): 50
- Barnyardgrass plant response rating (barnyardgrass [1]; 125 g ai/ha): 0
- Plant response rating, Barnyardgrass (barnyardgrass [1]; [5]): 20
- Plant response rating, Crabgrass, Large (crabgrass, large; [3]): 0
- Plant response rating, Crabgrass, Large (crabgrass, large; [4]): 50
- Crabgrass, Large plant response rating (crabgrass, large; 125 g ai/ha): 70
- Plant response rating, Crabgrass, Large (crabgrass, large; [6]): 90
- Plant response rating, Foxtail, Giant (giant foxtail; [3]): 0
- Foxtail, Giant plant response rating (giant foxtail; 125 g ai/ha): 20
- Plant response rating, Foxtail, Giant (giant foxtail; [6]): 50
- Plant response rating, Morningglory (morningglory; [3]): 0
- Plant response rating, Morningglory (morningglory; [4]): 0
- Morningglory plant response rating (morningglory; 125 g ai/ha): 0
- Plant response rating, Morningglory (morningglory; [6]): 0
- Plant response rating, Pigweed (pigweed; [3]): 0
- Plant response rating, Pigweed (pigweed; [4]): 0
- Pigweed plant response rating (pigweed; 125 g ai/ha): 0
- Plant response rating, Pigweed (pigweed; [6]): 0
- Plant response rating, Velvetleaf (velvetleaf; [3]): 0
- Plant response rating, Velvetleaf (velvetleaf; [4]): 0
- Velvetleaf plant response rating (velvetleaf; 125 g ai/ha): 0
- Plant response rating, Velvetleaf (velvetleaf; [6]): 0
- Plant response rating, Wheat (wheat; [3]): 0
- Plant response rating, Wheat (wheat; [4]): 0
- Wheat plant response rating (wheat; 125 g ai/ha): 0
- Plant response rating, Wheat (wheat; [6]): 0
- Plant response rating, Corn (corn; [3]): 0
- Plant response rating, Corn (corn; [4]): 0
- Corn plant response rating (corn; 125 g ai/ha): 0
- Plant response rating, Corn (corn; [6]): 0
- Plant response rating, Rice (rice; [7]): 0
- Plant response rating, Rice (rice; [8]): 0
- Plant response rating, Rice (rice; [9]): 0
- Plant response rating, Rice (rice; 250 g ai/ha, scale 0 to 100): 0
- Plant response rating, Sedge, Umbrella (sedge, umbrella; [7]): 0
- Plant response rating, Sedge, Umbrella (sedge, umbrella; [8]): 0
- Plant response rating, Sedge, Umbrella (sedge, umbrella; [9]): 0
- Plant response rating, Sedge, Umbrella (sedge, umbrella; 250 g ai/ha, scale 0 to 100): 0
- Plant response rating, Ducksalad (ducksalad; [7]): 0
- Plant response rating, Ducksalad (ducksalad; [8]): 0
- Plant response rating, Ducksalad (ducksalad; [9]): 0
- Plant response rating, Ducksalad (ducksalad; 250 g ai/ha, scale 0 to 100): 0
- Plant response rating, Barnyardgrass (barnyardgrass [2]; [7]): 0
- Plant response rating, Barnyardgrass (barnyardgrass [2]; [8]): 0
- Plant response rating, Barnyardgrass (barnyardgrass [2]; [9]): 0
- Plant response rating, Barnyardgrass (barnyardgrass [2]; 250 g ai/ha, scale 0 to 100): 0
